In patent USRE32455E, “A-21978 antibiotics and process for their production” (priority 1985, dated 1987):

Experiments:
[1] = system: A21978.6; experiment: Antibiotic sensitivity, sensitivity discs on seeded agar plates; type: cell-based, Streptomyces roseosporus; settings: Conc./disc: erythromycin 15 μg, cephalothin 30 μg, lincomycin 2 μg, nystatin 100 units, polymyxin B 300 units, streptomycin 10 μg, tetracycline 30 μg, vancomycin "+μg"
Method: (§1) Temperature range, NaCl tolerance, pH range, and antibiotic sensitivity were done using ISP #2 agar medium. The range of temperatures were: 25°, 28°, 30°, 34°, 37°, 40°, 45°, 50° and 55° C. NaCl tolerance was measured by adding NaCl to the agar to equal: 0, 1, 2, 3, 4, 5, 6, 8, 10 and 12%. These were incubated at 30° C. The pH range was measured by adjusting the agar from pH 3.0 to 11.0 at increments of 1.0 pH units, just prior to pouring. Antibiotic sensitivity was determined using sensitivity discs padded onto seeded agar plates.

[2] = system: S. roseosporus; experiment: as above; type: cell-based, Streptomyces roseosporus; settings: Conc./disc: erythromycin 15 μg, cephalothin 30 μg, lincomycin 2 μg, nystatin 100 units, polymyxin B 300 units, streptomycin 10 μg, tetracycline 30 μg, vancomycin "+μg"
Method: as §1, with “NaCl tolerance was measured by adding NaCl to the agar to equal: 0, 1, 2, 3, 4, 5, 6, 8, 10 and 12%.” left out
Note: key: +: sensitive (zones of inhibition); -: resistant (no zones of inhibition).

Compound: CC(=O)OCC1=C(C(=O)O)N2C(=O)[C@@H](NC(=O)Cc3cccs3)[C@H]2SC1 [Cephalothin]
- Antibiotic sensitivity [1]: +
- Antibiotic sensitivity [2]: +

Compound: Polymyxin B
- Antibiotic sensitivity [1]: +
- Antibiotic sensitivity [2]: -

Compound: C[C@@H]1[C@H](O)[C@@H](C)/C=C/C=C/CC/C=C/C=C/C=C/C=C/C(O[C@H]2O[C@H](C)[C@@H](O)[C@H](N)[C@@H]2O)CC2O[C@](O)(CC(O)C(O)CCC(O)CC(O)CC(O)CC(=O)O[C@H]1C)CC(O)C2C(=O)O (stereo partly shown) [Nystatin]
- Antibiotic sensitivity [1]: -
- Antibiotic sensitivity [2]: -

Compound: [H]/N=C(/N)N[C@H]1[C@H](O)[C@@H](O)[C@H](O[C@@H]2O[C@@H](C)[C@](O)(C=O)[C@H]2O[C@@H]2O[C@@H](CO)[C@H](O)[C@@H](O)[C@@H]2NC)[C@@H](N/C(N)=N\[H])[C@@H]1O [Streptomycin]
- Antibiotic sensitivity [1]: +
- Antibiotic sensitivity [2]: +

Compound: CCC[C@@H]1C[C@@H](C(=O)N[C@@H]([C@H]2O[C@H](SC)[C@H](O)[C@@H](O)[C@H]2O)[C@@H](C)O)N(C)C1 [Lincomycin]
- Antibiotic sensitivity [1]: -
- Antibiotic sensitivity [2]: -
